# Source: publication PMC9866191, “Novel 9-Benzylaminoacridine Derivatives as Dual Inhibitors of Phosphodiesterase 5 and Topoisomerase II for the Treatment of Colon Cancer” (Molecules, 2023)
# Tests used:
# Format in all cases: cell-based
# BT-549 = experiment: NCI-60 one-dose screen; conditions: Homo sapiens; BT-549, Breast Cancer panel; single dose 10^−5 M; read-out: Growth inhibition %
# PC-3 = experiment: NCI-60 one-dose screen; conditions: Homo sapiens; PC-3, Prostate Cancer panel; single dose 10^−5 M; read-out: Growth inhibition %
# HL-60(TB) = experiment: NCI-60 one-dose screen; conditions: Homo sapiens, Leukemia panel, single dose 10^−5 M, read-out: Growth inhibition %
# SK-OV-3 = experiment: NCI-60 one-dose screen; conditions: Homo sapiens; SK-OV-3, Ovarian Cancer panel; single dose 10^−5 M; read-out: Growth inhibition %
# SK-MEL-28 = experiment: NCI-60 one-dose screen; conditions: Homo sapiens; SK-MEL-28, Melanoma panel; single dose 10^−5 M; read-out: Growth inhibition %
# HCT-15 = experiment: NCI-60 one-dose screen; conditions: Homo sapiens; HCT-15, Colon Cancer panel; single dose 10^−5 M; read-out: Growth inhibition %
# OVCAR-4 = experiment: NCI-60 one-dose screen; conditions: Homo sapiens; OVCAR-4, Ovarian Cancer panel; single dose 10^−5 M; read-out: Growth inhibition %
# NCI-H23 = experiment: NCI-60 one-dose screen; conditions: Homo sapiens; NCI-H23, Non-small cell lung panel; single dose 10^−5 M; read-out: Growth inhibition %
# SF-295 = experiment: NCI-60 one-dose screen; conditions: Homo sapiens; SF-295, CNS Cancer panel; single dose 10^−5 M; read-out: Growth inhibition %
# MDA-MB-435 = experiment: NCI-60 one-dose screen; conditions: Homo sapiens; MDA-MB-435, Melanoma panel; single dose 10^−5 M; read-out: Growth inhibition %
# SR = experiment: NCI-60 one-dose screen; conditions: Homo sapiens, Leukemia panel, single dose 10^−5 M, read-out: Growth inhibition %
# MOLT-4 = experiment: NCI-60 one-dose screen; conditions: Homo sapiens; MOLT-4, Leukemia panel; single dose 10^−5 M; read-out: Growth inhibition %
# NCI-H522 = experiment: NCI-60 one-dose screen; conditions: Homo sapiens; NCI-H522, Non-small cell lung panel; single dose 10^−5 M; read-out: Growth inhibition %
# CAKI-1 = experiment: NCI-60 one-dose screen; conditions: Homo sapiens; CAKI-1, Renal Cancer panel; single dose 10^−5 M; read-out: Growth inhibition %
# SNB-75 = experiment: NCI-60 one-dose screen; conditions: Homo sapiens; SNB-75, CNS Cancer panel; single dose 10^−5 M; read-out: Growth inhibition %
# DU-145 = experiment: NCI-60 one-dose screen; conditions: Homo sapiens; DU-145, Prostate Cancer panel; single dose 10^−5 M; read-out: Growth inhibition %
# M14 = experiment: NCI-60 one-dose screen; conditions: Homo sapiens; M14, Melanoma panel; single dose 10^−5 M; read-out: Growth inhibition %
# NCI/ADR-RES = experiment: NCI-60 one-dose screen; conditions: Homo sapiens, Ovarian Cancer panel, single dose 10^−5 M, read-out: Growth inhibition %
# ACHN = experiment: NCI-60 one-dose screen; conditions: Homo sapiens, Renal Cancer panel, single dose 10^−5 M, read-out: Growth inhibition %
# T-47D = experiment: NCI-60 one-dose screen; conditions: Homo sapiens, T47D, Breast Cancer panel, single dose 10^−5 M, read-out: Growth inhibition %
# NCI-H460 = experiment: NCI-60 one-dose screen; conditions: Homo sapiens; NCI-H460, Non-small cell lung panel; single dose 10^−5 M; read-out: Growth inhibition %
# EKVX = experiment: NCI-60 one-dose screen; conditions: Homo sapiens, Non-small cell lung panel, single dose 10^−5 M, read-out: Growth inhibition %
# HT29 = experiment: NCI-60 one-dose screen; conditions: Homo sapiens, HT-29; HT29, Colon Cancer panel; single dose 10^−5 M; read-out: Growth inhibition %
# A498 = experiment: NCI-60 one-dose screen; conditions: Homo sapiens; A498, Renal Cancer panel; single dose 10^−5 M; read-out: Growth inhibition %
# OVCAR-5 = experiment: NCI-60 one-dose screen; conditions: Homo sapiens; OVCAR-5, Ovarian Cancer panel; single dose 10^−5 M; read-out: Growth inhibition %
# MCF7 = experiment: NCI-60 one-dose screen; conditions: Homo sapiens; MCF7, Breast Cancer panel; single dose 10^−5 M; read-out: Growth inhibition %
# 786-0 = experiment: NCI-60 one-dose screen; conditions: Homo sapiens; 786-0, Renal Cancer panel; single dose 10^−5 M; read-out: Growth inhibition %
# SK-MEL-5 = experiment: NCI-60 one-dose screen; conditions: Homo sapiens; SK-MEL-5, Melanoma panel; single dose 10^−5 M; read-out: Growth inhibition %
# CCRF-CEM = experiment: NCI-60 one-dose screen; conditions: Homo sapiens, Leukemia panel, single dose 10^−5 M, read-out: Growth inhibition %
# IGROV1 = experiment: NCI-60 one-dose screen; conditions: Homo sapiens, IGROV-1; IGROV1, Ovarian Cancer panel; single dose 10^−5 M; read-out: Growth inhibition %
# [1] = system: panel of 60 human tumor cell lines; experiment: NCI 60-cell line one-dose screen (mean); conditions: mean of the 60 cell lines, single dose 10^−5 M, read-out: Mean % Growth Inhibition
# Experimental: The newly synthesized compounds were screened for their in vitro anticancer activity at the Developmental Therapeutic Program (DTP) of the National Cancer Institute (NCI). The screening involved a panel of 60 human tumor cell lines consisting of 9 tissue types to screen for potential anti-cancer agents. The primary screening of submitted compounds was performed by testing a single dose (10^−5 M) in the full NCI-60 panel. The detailed % inhibition by the tested compounds against the 60 cell lines is shown in Tables S1–S3 in the Supporting Information.
SMILES,inhibition at 10 µM (BT-549) [%],inhibition at 10 µM (PC-3) [%],inhibition at 10 µM (HL-60(TB)) [%],inhibition at 10 µM (SK-OV-3) [%],inhibition at 10 µM (SK-MEL-28) [%],inhibition at 10 µM (HCT-15) [%],inhibition at 10 µM (OVCAR-4) [%],inhibition at 10 µM (NCI-H23) [%],inhibition at 10 µM (SF-295) [%],inhibition at 10 µM (MDA-MB-435) [%],inhibition at 10 µM (SR) [%],inhibition at 10 µM (MOLT-4) [%],inhibition at 10 µM (NCI-H522) [%],inhibition at 10 µM (CAKI-1) [%],inhibition at 10 µM (SNB-75) [%],inhibition at 10 µM (DU-145) [%],inhibition at 10 µM (M14) [%],inhibition at 10 µM (NCI/ADR-RES) [%],inhibition at 10 µM (ACHN) [%],inhibition at 10 µM (T-47D) [%],other results
"Clc1ccccc1CNc1c2ccccc2nc2ccccc12 [Compound 11, Acridin-9-yl-(2-chlorobenzyl)-amine]",61.9,82.9,86.4,45.1,49.5,86.4,86.9,78.4,78.3,72.8,99.5,94.9,71.5,74.8,56.9,68.2,81.9,76.2,87.8,69.5,inhibition at 10 µM (NCI-H460): 91.2%; inhibition at 10 µM (EKVX): 74.1%; inhibition at 10 µM (HT29): 94.5%; inhibition at 10 µM (A498): 106%; inhibition at 10 µM (OVCAR-5): 67.4%; inhibition at 10 µM (MCF7): 100%; inhibition at 10 µM (786-0): 75.5%; inhibition at 10 µM (SK-MEL-5): 58.2%; inhibition at 10 µM (CCRF-CEM): 89.3%; inhibition at 10 µM (IGROV1): 82.2%; inhibition at 10 µM [1]: 78.4%
"Clc1cccc(CNc2c3ccccc3nc3ccccc23)c1 [Compound 12, Acridin-9-yl-(3-chlorobenzyl)-amine]",40.9,76.5,91,36.1,33.8,86,81.2,68,79.2,53.4,104,98.9,58.3,71.8,31.3,68.3,64.5,73.7,84.3,59.1,inhibition at 10 µM (NCI-H460): 85.8%; inhibition at 10 µM (EKVX): 72.8%; inhibition at 10 µM (HT29): 91.4%; inhibition at 10 µM (A498): 103%; inhibition at 10 µM (OVCAR-5): 67.6%; inhibition at 10 µM (MCF7): 99.1%; inhibition at 10 µM (786-0): 74.8%; inhibition at 10 µM (SK-MEL-5): 33.8%; inhibition at 10 µM (CCRF-CEM): 81.9%; inhibition at 10 µM (IGROV1): 83.5%; inhibition at 10 µM [1]: 73%
"c1coc(CNc2c3ccccc3nc3ccccc23)c1 [Compound 14, Acridin-9-yl-furan-2-ylmethyl-amine]",2.59,33,6.96,29.1,2.28,55.8,43.1,36.4,46.1,12.4,66,72.8,52.7,59,18.5,24,20.3,55.2,73.8,30.7,inhibition at 10 µM (NCI-H460): 43.5%; inhibition at 10 µM (EKVX): 38%; inhibition at 10 µM (HT29): 64.9%; inhibition at 10 µM (A498): 79.9%; inhibition at 10 µM (OVCAR-5): 23.6%; inhibition at 10 µM (MCF7): 78.7%; inhibition at 10 µM (786-0): 34.3%; inhibition at 10 µM (SK-MEL-5): 15.7%; inhibition at 10 µM (CCRF-CEM): 42.9%; inhibition at 10 µM (IGROV1): 38.1%; inhibition at 10 µM [1]: 38.4%
"COc1ccc(CNc2c3ccccc3nc3ccccc23)cc1F [Compound 19, Acridin-9-yl-(3-fluoro-4-methoxybenzyl)-amine]",50.5,69.5,87.1,52,53.3,89,73.8,73,79.9,92.4,95.2,91.1,63.8,78.7,57.5,72.8,80.1,79.2,89.1,65,inhibition at 10 µM (NCI-H460): 93.7%; inhibition at 10 µM (EKVX): 73.9%; inhibition at 10 µM (HT29): 87.8%; inhibition at 10 µM (A498): 106%; inhibition at 10 µM (OVCAR-5): 63.1%; inhibition at 10 µM (MCF7): 97.7%; inhibition at 10 µM (786-0): 74%; inhibition at 10 µM (SK-MEL-5): 63.5%; inhibition at 10 µM (CCRF-CEM): 70.4%; inhibition at 10 µM (IGROV1): 84.2%; inhibition at 10 µM [1]: 76.2%
"COc1ccc2nc3ccccc3c(NCc3ccc(C)cc3)c2c1 [Compound 26, (2-Methoxyacridin-9-yl)-(4-methylbenzyl)-amine]",48.4,88.6,100,47.3,33.6,88.6,81.5,71.7,76.4,57.8,113,99.7,73.6,73.8,53.4,78.4,71.3,76.2,83.7,69.4,inhibition at 10 µM (NCI-H460): 90%; inhibition at 10 µM (EKVX): 64.8%; inhibition at 10 µM (HT29): 98.8%; inhibition at 10 µM (A498): 102%; inhibition at 10 µM (OVCAR-5): 66%; inhibition at 10 µM (MCF7): 96.6%; inhibition at 10 µM (786-0): 84.2%; inhibition at 10 µM (SK-MEL-5): 65.6%; inhibition at 10 µM (CCRF-CEM): 92.9%; inhibition at 10 µM (IGROV1): 82.8%; inhibition at 10 µM [1]: 79.9%
